Measurements reported in patent publication US20240156838A1, “Contraceptive Compositions and Methods for Improved Efficacy and Modulation of Side Effects” (Agile Therapeutics, Inc., priority 2015, published 2024).
Where two headings read alike, the source gives them in different places. One block for each molecule: values may come before it.

Columns and labels:
[1] = cited from earlier work; for unenhanced flux: without chemical enhancers
SHBG [2] = target: T1, SHBG (Homo sapiens, UniProt P04278); details: cited from earlier work; for binding affinity for SHBG: Phillips 1990, Steroids
T1 sequence (P04278 30-402): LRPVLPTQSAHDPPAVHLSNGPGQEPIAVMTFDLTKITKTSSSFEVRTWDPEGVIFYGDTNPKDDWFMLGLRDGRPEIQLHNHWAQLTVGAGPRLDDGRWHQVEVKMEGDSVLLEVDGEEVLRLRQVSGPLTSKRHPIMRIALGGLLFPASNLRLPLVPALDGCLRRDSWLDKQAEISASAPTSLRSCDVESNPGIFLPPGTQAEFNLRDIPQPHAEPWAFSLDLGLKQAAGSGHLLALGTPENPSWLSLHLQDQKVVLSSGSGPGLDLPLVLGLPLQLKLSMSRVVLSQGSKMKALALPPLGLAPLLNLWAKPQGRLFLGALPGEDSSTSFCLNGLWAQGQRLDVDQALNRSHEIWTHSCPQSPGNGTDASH

[3] = in vivo; cited from earlier work
SHBG [4] = target: T1, SHBG; details: cited from earlier work
[5] = Second clinical trial of LNG plus EE transdermal patches (Example 2): serum/plasma LNG and EE levels; details: clinical data of LNG plus EE patches versus LNG-only patches
[6] = human, in vivo
[7] = In vitro skin permeation of LNG from patches, Franz diffusion cells; assay type: in vitro ADME, human; details: comparison in words
Protocol: The objective of this study was to compare in vitro skin permeation of LNG through human cadaver skin from a patch containing both EE and LNG (Patch of column 4, Table 1) with a patch containing only LNG (patch in column 2, Table 1).
Only one (1) skin donor was used in these in vitro skin permeation experiments (split thickness dermatomed approximately at […] human cadaver skin). All in vitro skin permeation studies were conducted using the PermeGear Membrane Transport System. Each Membrane Transport System consisted of vertical, jacketed (37° C.±0.5° C.) Franz diffusion cells with magnetic stirrer, 2 chamber (donor and receiver) sets of 6 units, orifice diameter 15 mm, effective permeation surface area 1.767 cm^2. Each cell was prepared by cutting the skin samples into approximately 3 cm×3 cm squares and mounting them on the top of the receiver compartment of Franz cells. Patches to be tested were placed on the stratum corneum surface of the skin and the donor and receiver compartments of the diffusion cells were then clamped in place. The receiver compartment was then filled with approximately 12 mL of receiver medium/receptor solution (Phosphate Buffered Saline (PBS)+0.5% Oleth 20+0.008% Gentamicin, pH 7.3), tilting to make sure the receiver medium and the skin/solution interface was free of any air bubbles.
Skin flux studies were run for a period of 168 hours. […]

[8] = Victor et al., J. Clin. Endocrinol. Metab. 43: 244

Molecule: C#C[C@]1(O)CC[C@H]2[C@@H]3CCC4=CC(=NO)CC[C@@H]4[C@H]3CC[C@@]21CC (mixture of isomers) [17 deacetylnorgestimate]
unenhanced flux ([1]; from cited patents): 0.1 micrograms/cm^2/hr

Molecule: C#C[C@]1(OC(C)=O)CC[C@H]2[C@@H]3CCC4=CC(=NO)CC[C@@H]4[C@H]3CC[C@@]21CC (mixture of isomers) [norgestimate]
binding affinity for SHBG (SHBG [2]): low binding affinity

Molecule: C#CC1(O)CC[C@H]2[C@@H]3CCC4=CC(=O)CC[C@@H]4[C@H]3CC[C@@]21CC (mixture of isomers) [dl-norgestrel]
binding affinity to SHBG (SHBG [2]; [8]): higher affinity for SHBG than EE

Molecule: C#C[C@]1(O)CC[C@H]2[C@@H]3CCC4=CC(=O)CC[C@@H]4[C@H]3C(=C)C[C@@]21CC [3-keto desogestrel]
binding affinity for SHBG (SHBG [2]): reasonably high affinities
binding affinity to SHBG (SHBG [2]; Pollow 1989, Contraception): high binding affinity

Molecule: C[C@]12CC[C@@H]3c4ccc(O)cc4CC[C@H]3[C@@H]1CC[C@@H]2O [17-beta estradiol, 17-beta-estradiol]
oral bioavailability [3]: less than 10%

increase of LNG plasma levels by addition of EE relative to addition of an equivalent amount of LNG [5]: about ten
Molecule: C#C[C@]1(O)CC[C@H]2[C@@H]3CCc4cc(O)ccc4[C@H]3CC[C@@]21C [EE, ethinyl estradiol]
IC50 (SHBG [4]; Hong et al., 2015, read-out: IC50 in testosterone displacement assay): 790 nM
IC50 (SHBG [4]; according to Hong (2015), read-out: IC50 (affinity for SHBG)): 800 nM
oral bioavailability [3]: 95%

mean serum concentration of LNG, value extrapolated from the data collected [6]: 1420 picograms per milliliter
permeation/release of LNG through human skin, LNG-only versus LNG plus EE patches [7]: not affected by the presence of EE
Molecule: C#C[C@]1(O)CC[C@H]2[C@@H]3CCC4=CC(=O)CC[C@@H]4[C@H]3CC[C@@]21CC [LNG, levonorgestrel]

Molecule: CC(=O)O[C@]1(C(C)=O)CC[C@H]2[C@@H]3C=C(C)C4=CC(=O)CC[C@]4(C)[C@H]3CC[C@@]21C [Megestrol acetate]
binding affinity to SHBG (SHBG [2]; [8]): do not have high binding affinity

Molecule: C#C[C@]1(OC(C)=O)CC[C@H]2[C@@H]3CCC4=CC(=O)CC[C@@H]4[C@H]3CC[C@@]21C [Norethindrone Acetate]
flux ([1]; U.S. Pat. No. 5,474,783, enhancement not stated): 0.05 micrograms/cm^2/hr

Molecule: CC(=O)O[C@]1(C(C)=O)CC[C@H]2[C@@H]3C=C(Cl)C4=CC(=O)[C@@H]5C[C@@H]5[C@]4(C)[C@H]3CC[C@@]21C [cyproterone acetate]
binding affinity to SHBG (SHBG [2]; Pollow 1989, Contraception): lesser binding affinity

Molecule: C#C[C@]1(O)CC[C@H]2[C@@H]3CCC4=CC(=O)CC[C@@H]4[C@H]3CC[C@@]21CC [d-norgestrel]
binding affinity to SHBG (SHBG [2]; [8]): higher affinity for SHBG than EE

Molecule: C#C[C@]1(O)CC[C@H]2[C@@H]3CCC4=CCCC[C@@H]4[C@H]3C(=C)C[C@@]21CC [desogestrel]
binding affinity to SHBG (SHBG [2]; Pollow 1989, Contraception): lesser binding affinity
binding affinity to SHBG (SHBG [2]; Schoultz 1989): lesser binding affinity

Molecule: C#C[C@]1(O)C=C[C@H]2[C@@H]3CCC4=CC(=O)CC[C@@H]4[C@H]3CC[C@@]21CC [gestodene]
binding affinity for SHBG (SHBG [2]): reasonably high affinities
binding affinity to SHBG (SHBG [2]; Pollow 1989, Contraception): high binding affinity

Molecule: C#C[C@]1(O)CC[C@H]2[C@@H]3CCC4=CCCC[C@@H]4[C@H]3CC[C@@]21C [lynestrenol]
binding affinity to SHBG (SHBG [2]; [8]): higher affinity for SHBG than EE

Molecule: CC(=O)O[C@]1(C(C)=O)CC[C@H]2[C@@H]3C[C@H](C)C4=CC(=O)CC[C@]4(C)[C@H]3CC[C@@]21C [medroxyprogesterone acetate]
binding affinity to SHBG (SHBG [2]; Pollow 1989, Contraception): lesser binding affinity
binding affinity to SHBG (SHBG [2]; Schoultz 1989): lesser binding affinity

Molecule: C=C1C[C@H]2[C@@H]3CCC4=CC(=O)CC[C@@H]4[C@H]3CC[C@]2(C)[C@@]1(OC(C)=O)C(C)=O [nesterone]
enhanced flux ([1]; with chemical enhancers, from cited patents): 0.01 micrograms/cm^2/hr
unenhanced flux ([1]; from cited patents): 0.005 micrograms/cm^2/hr

Molecule: C#C[C@]1(OC(C)=O)CC[C@H]2[C@@H]3CCC4=CC(=O)CC[C@@H]4[C@H]3CC[C@@]21C [norethisterone acetate]
unenhanced flux ([1]; from cited patents): 0.05 micrograms/cm^2/hr

Molecule: C#C[C@]1(O)CC[C@H]2[C@@H]3CCC4=CC(=O)CC[C@@H]4[C@H]3CC[C@@]21C [norethisterone]
binding affinity to SHBG (SHBG [2]; Schoultz 1989): high binding affinity
binding affinity to SHBG (SHBG [2]; [8]): higher affinity for SHBG than EE

Molecule: C#C[C@]1(O)CC[C@H]2[C@@H]3CCC4=C(CCC(=O)C4)[C@H]3CC[C@@]21C [norethynodrel]
binding affinity to SHBG (SHBG [2]; [8]): higher affinity for SHBG than EE

Molecule: CC(=O)[C@H]1CC[C@H]2[C@@H]3CCC4=CC(=O)CC[C@]4(C)[C@H]3CC[C@]12C [progesterone]
binding affinity to SHBG (SHBG [2]; Pollow 1989, Contraception): lesser binding affinity
unenhanced flux ([1]; from cited patents): 0.14 micrograms/cm^2/hr

Molecule: medroxyprogesterone
binding affinity to SHBG (SHBG [2]; [8]): do not have high binding affinity
